# From US9128081B2, “TDP-43-storing cell model” (TOKYO METROPOLITAN INSTITUTE OF MEDICAL SCIENCE, priority 2008, dated 2015)
# “Also recorded” adds a separate entry of the source. Where a SMILES comes first, the peptide text is derived from it. The star is where a group is joined. Cbz = O=C(OCc1ccccc1)*
# Experiments:
# Format in all cases: cell-based, human
# [1] = test system: SH-SY5Y cells expressing NLS1-deficient mutant TDP-43; assay: Protease inhibitor treatment of NLS1-deficient mutant-expressing cells, confocal laser microscope; settings: inhibitor 20 μM, 6 hours; for inclusion formation, anti-pS409/410 staining: inclusion diameter about 10 μm
# Method: (§1) Each of the above-described various plasmid vectors (pcDNA3 or pEGFP system, 1 μg) was integrated into SH-SY5Y cell using FuGENE6 transfection reagent (Roche Diagnostics). FuGENE6 at 3-fold volume of the total plasmid amount was mixed with the plasmid, left to stand at room temperature for 15 minutes, and then mixed with the cell solution. The resultant was cultured for 2-3 days, and used for preparation of cell lysates or immunohistological staining.
# (§2) SH-SY5Y cells cultured on glass covers were mixed with each of the various expression vectors (1 μg) and added in the presence of FuGENE6. After two days of cultivation, cell immobilization or protease inhibitor treatment was carried out. In the protease inhibitor treatment, a final concentration of 20 μM of MG132 (proteasome inhibitor) or carbobenzoxy-leucyl-leucinal (zLL: calpain inhibitor) was added to the cell, and cultured at 37° C. for 6 hours. Thereafter, the cell was immobilized in a 4% paraformaldehyde solution. […] After washing with 50 mM Tris-HCl containing 0.05% Tween 20 and 150 mM NaCl (pH 7.5) (TBS-T), the cell was caused to react with a fluorescence-labeled secondary antibody at 37° C. for an hour. […] The resultant was sealed on a glass slide, and then analyzed with a confocal laser microscope (Carl Zeiss).
# (§3) The primary antibody and the fluorescence-labeled secondary antibody used were as follows. • Primary antibody: • anti-TARDBP (ProteinTech, 1:1000 dilution); • anti-pS409/410 (antibody (antibody that specifically binds to TDP-43 aggregates) obtained by using, as an antigen, a peptide in which Ser residues at positions 409 and 410 of TDP-43 are both phosphorylated, 1:500 dilution); • anti-ubiquitin (MAB1510, CHEMICON, 1:500 dilution) • Fluorescence-labeled secondary antibody: • FITC-labeled anti-rabbit IgG (anti-rabbit immunoglobulin, FITC-labeled, Product number: F9887, Sigma, 1:500 dilution); • rhodamine-labeled anti-mouse IgG (anti-mouse immunoglobulin, TRITC-labeled, Product number: T2402, Sigma, 1:500 dilution) […]
# [2] = test system: SH-SY5Y cells expressing NLS2-deficient mutant TDP-43; assay: Protease inhibitor treatment of NLS2-deficient mutant-expressing cells, confocal laser microscope; settings: inhibitor 20 μM, 6 hours; for inclusion formation / expression pattern, anti-TARDBP staining: 37° C.
# Method: as §1, §2, §3
# [3] = test system: SH-SY5Y cells expressing wild-type TDP-43; assay: Protease inhibitor treatment of wild-type TDP-43-expressing cells, confocal laser microscope; settings: inhibitor 20 μM, 37° C., 6 hours
# Method: as §1
# as §2, with “Zeiss). […]” for “Zeiss).”
# [4] = test system: SH-SY5Y cells expressing pEGFP-TDP 162-414 (GFP-TDP 162-414); assay: Suppression of formation of intracellular TDP-43 inclusions by low-molecular compounds (GFP-TDP 162-414); settings: enhanced concentration-dependently, 3 days after addition
# Method: (§4) The cell used was human neuroblast cell line SH-SY5Y, while pEGFP-TDP 162-414 (GFP-TDP 162-414) and pcDNA3-TDP delta NLS1&2 (TDP delta NLS1&2) which gave more significant formation of intracellular inclusions among various TDP-43 mutants were used to search for an inhibitor for the above-described inclusion formation.
# (§5) Gene transfection into SH-SY5Y cell was carried out according to the method described in “Cultivation of SH-SY5Y cell and integration of plasmid vector” above, where 1 μg of each of the various plasmids was transfected into the cell with three-fold volume of a transfection reagent (FuGENE6: 3 μl).
# (§6) Treatment with a candidate inhibitor took place two hours after gene transfection. As candidate inhibitors, methylene blue and dimebon were examined. […] The concentrations of methylene blue were determined to take the above concentrations by considering the concentration conditions that have no damage on cell proliferation. On the other hand, the concentrations of dimebon were determined by referring to a publication (Jun Wu et al., Molecular Neurodegeneration, 2008, vol. 3, p. 15), and the preparation method (suspension in sterile water) was carried out according to the instruction provided by the reagent supplier. […]
# Fluorescence-Labeled Secondary Antibody: • Alexa-568-labeled anti-mouse IgG (1:500 dilution) […]
# [5] = test system: SH-SY5Y cells expressing pcDNA3-TDP delta NLS1&2 (TDP delta NLS1&2); assay: Suppression of formation of intracellular TDP-43 inclusions by low-molecular compounds (TDP delta NLS1&2); settings: enhanced concentration-dependently, 3 days after addition
# Method: as §4, §5
# as §6, with “transfection.” for “transfection. As candidate inhibitors, methylene blue and dimebon were examined.”
# Fluorescence-Labeled Secondary Antibody: • Fluorescein isothiocyanate (FITC)-labeled anti-rabbit IgG (Sigma, 1:500 dilution) • Alexa-568-labeled anti-mouse IgG (1:500 dilution) […]
# [6] = methylene blue 0.05 μM, FIGS. 19 and 20
smiles,measurement,setting,value
CC(C)C[C@@H](C=O)NC(=O)[C@H](CC(C)C)NC(=O)[C@H](CC(C)C)NC(=O)OCc1ccccc1 [MG132] (Cbz-Leu-Leu-Leu-aldehyde),"inclusion formation, anti-TARDBP staining",[1]; 37° C.,did not show significant difference from MG132-free cases; also recorded: cytoplasmic inclusions were not observed
same,"inclusion formation, anti-pS409/410 staining",[1],anti-pS409/410-positive cytoplasmic inclusions were observed
same,"inclusion formation / expression pattern, anti-TARDBP staining",[2],inclusions were found in the nucleus
same,"inclusion formation, anti-pS409/410 and anti-ubiquitin staining",[2]; inclusion diameter about 10 μm,emergence of intranuclear inclusions positive to both anti-pS409/410 and anti-ubiquitin
same,"inclusion formation, anti-TARDBP staining",[3],did not show significant difference from MG132-free cases
Cc1ccc2c(c1)c1c(n2CCc2ccc(C)nc2)CCN(C)C1 [dimebon],inhibition effect on formation of intracellular TDP-43 inclusions,"[4]; dimebon 20 μM, FIGS. 21 and 22",inhibition effect of dimebon was also confirmed
same,inhibition effect on formation of intracellular TDP-43 inclusions,"[5]; dimebon 20 μM, FIGS. 21 and 22",inhibition effect of dimebon was also confirmed
CN(C)c1ccc2nc3ccc(=[N+](C)C)cc-3sc2c1 [methylene blue],inhibition effect on formation of intracellular TDP-43 inclusions,[4]; [6],inhibition effect of methylene blue was confirmed
same,inhibition effect on formation of intracellular TDP-43 inclusions,[5]; [6],inhibition effect of methylene blue was confirmed
"CC(C)C[C@@H](C=O)NC(=O)[C@H](CC(C)C)NC(=O)OCc1ccccc1 [zLL, carbobenzoxy-leucyl-leucinal]","inclusion formation, anti-pS409/410 staining",[1],no intracellular inclusion was observed
same,"inclusion formation / expression pattern, anti-TARDBP staining",[2],no particular change was found in the expression pattern
